Experimental findings from patent EP0337167B1, “4-Aryl-4-piperidine (or pyrrolidine or hexahydroazepine) carbinols and heterocyclic analogs thereof” (THE DU PONT MERCK PHARMACEUTICAL COMPANY, priority 1988, dated 1989) are described below.

Structures are written as SMILES. Where two headings read alike, the source gives them in different places.

In this test the test system is Male CF1 mice. Briefly: Mouse antiphenylquinone writhing (PQW) test. Format: in vivo. The arrangement: Mouse PQW ED50 (mg/kg): unit not given here. The conditions noted are these: for ED50: Mus musculus, 0.5 h, phenylquinone 1.25 mg/kg i.p., observation beginning 30 min after injection of test compound; for ED50 / Mouse PQW remark: Table 3; for Mouse PQW ED50 (mg/kg): Table 4, 3° carbinols within the scope of U.S. 4,485,109, head prints neither endpoint nor unit; for Mouse PQW remark: remark beside S.C and P.O values. How it is done:
The anti-pheylquinone writhing (PQW) test modified from the methods of Siegmund et al. (Proc. Soc. Exp. Biol. Med. 95: 729-731, 1957) and Blumberg et al. (Proc. Exp. Biol. Med. 118: 763-767, 1965) was used to assess analgesia in mice. Male CF1 mice (Charles River Breeding Laboratories, Wilmington, MA), fasted for 16-22 h and weighing 18-23 g, were injected with randomized and coded doses of test compounds, then challenged with 1.25 mg/kg i.p. phenyl-p-benzoquinone (phenylquinone) 5 min prior to the specified observation time. The phenylquinone solution (0.1 mg/ml in 5% aqueous ethanol) was prepared daily and stored in foil-wrapped amber bottles to limit degradation. Mice were observed 10 min for the presence or absence of the characteristic abdominal constriction and stretching response beginning 30 min after injection of the test compound. Analgetic activity was calculated as the percentage of mice failing to respond to the phenylquinone challenge dose. […] Median effective doses (ED50's) and 95% confidence limits were determined numerically by the methods of Thompson (Bacteriological Rev. 11: 115-145, 1947), and Litchfield and Wilcoxon (J. Pharmacol. Exp. Ther. 96: 99.113, 1949).
The data shown in Table show the PQW ED₅₀ values for the compounds of the aforesaid examples.
Table 4 illustrates that the 3° carbinols within the scope of U.S. 4,485,109 have utility as analgesic agents.

The mark [1] stands for this setting: po, p.o., read-out: Mouse PQW ED₅₀ (Mg/Kg) P.O.
Where [2] appears, read: sc, s.c., read-out: Mouse PQW ED₅₀ (Mg/Kg) S.C.

Consider `CC(O)C1(c2ccsc2)CCN(C)CC1` (stereo not drawn) [Example 27, 4-(3-Thienyl)-α,1-dimethylpiperidinemethanol], for which the ED50 was found to be 16 mg/kg under setting [1] and 13 mg/kg under setting [2].

As to `CN1CCC(c2cccc(F)c2)(C(C)(C)O)CC1` [X], the “Mouse PQW ED50 (mg/kg)” value (p.o.) is recorded as more than 81.0 and the “Mouse PQW ED50 (mg/kg)” value (s.c.) worked out at 10.0.

`CSc1ccc(C2(C(C)(C)O)CCN(C)CC2)cc1` [II]: the “Mouse PQW ED50 (mg/kg)” value (p.o.) is reported as 59.0.

With `Cc1ccc(C2(C(C)O)CCN(C)CC2)cc1` (stereo not shown) [Example 14], the ED50 by setting is: under setting [1], more than 81 mg/kg; under setting [2], 54 mg/kg.

Turning to `CC(O)C1(c2cccc(Cl)c2)CCCN(C)CC1` (stereo not drawn) [Example 71, 4-(3'-Chlorophenyl)-α,1-dimethyl-2,3,4,5,6,7-hexahydro-1H-azepine-4-methanol], the ED50 reads like this: under setting [1], 16 mg/kg; under setting [2], 8.1 mg/kg.

As for `COC(C)C1(c2cccc(Cl)c2)CCN(C)CC1` (stereo not shown) [Example 68], the ED50 under setting [1] was found to be 19 mg/kg and the ED50 under setting [2] is 6.5 mg/kg.

For `CN1CCC(c2cccc(O)c2)(C(C)(C)O)CC1` [AA], the “Mouse PQW ED50 (mg/kg)” value by setting is: (p.o.) more than 81.0; (s.c.) 62.0.

Consider `CC(=O)OC(C)C1(c2cccc(Cl)c2)CCN(C)CC1` (stereo not drawn) [Example 66, 4-(3'-Chlorophenyl)-α,1-dimethyl-4-piperidinemethanol-Acetate], for which the ED50 came to 19 mg/kg under setting [1] and 13 mg/kg under setting [2].

In the case of `CC(O)C1(c2csc3ccccc23)CCN(C)CC1` (stereo not shown) [Example 29], the ED50 by setting is: under setting [1], 47 mg/kg; under setting [2], 6.8 mg/kg.

On to `CC(O)C1(c2ccc(F)cc2)CCN(C)CC1` (stereo not shown) [Example 6], for which the ED50 reads like this: under setting [1], more than 81 mg/kg; under setting [2], 54 mg/kg.

As to `CCC(O)C1(c2cccc(Cl)c2)CCN(C)CC1` (stereo not shown) [Example 35], the ED50 is, setting by setting: under setting [1], 30 mg/kg; under setting [2], 16 mg/kg.

Turning to `CCN1CCC(c2cccc(Cl)c2)(C(C)O)CC1` (stereo not drawn) [Example 2, 4-(3'-Chlorophenyl)-1-ethyl-α-methyl-4-piperidinemethanol], the ED50 under setting [1] was more than 81 mg/kg and the ED50 under setting [2] worked out at 62 mg/kg.

For `Cc1ccc(C2(C(C)(C)O)CCN(C)CC2)s1` [LL], the “Mouse PQW ED50 (mg/kg)” value reads like this: (p.o.) 36.0; (s.c.) 9.0.

Consider `CN1CCC(c2cccc(Cl)c2)(C(C)(C)O)C1` (stereo not drawn) [Example 70, 3-(3'Chlorophenyl)-α,α,1-trimethyl-3-pyrrolidinemethanol], for which the ED50 by setting is: under setting [1], 13 mg/kg; under setting [2], 10 mg/kg.

In the case of `CC(O)C1(c2ccc3ccccc3c2)CCN(C)CC1` (stereo not shown) [Example 25], the ED50 under setting [1] was more than 81 mg/kg and the ED50 under setting [2] was determined as 16 mg/kg.

Take `CCCN1CCC(c2cccc(Cl)c2)(C(C)O)CC1` (stereo not shown) [Example 34]: the ED50 is more than 81 mg/kg under setting [1] and 38 mg/kg under setting [2].

Turning to `CCOc1cccc(C2(C(C)(C)O)CCN(C)CC2)c1` [HH], the “Mouse PQW ED50 (mg/kg)” value reads like this: (p.o.) 32.0; (s.c.) 9.0.

With `CCCC(O)C1(c2cccc(Cl)c2)CCN(C)CC1` (stereo not shown) [Example 36], the ED50 runs as follows: under setting [1], more than 81 mg/kg; under setting [2], 67 mg/kg.

For the compound `CCCCC(O)C1(c2cccc(Cl)c2)CCN(C)CC1` (stereo not shown) [Example 37], the ED50 was more than 81 mg/kg under setting [1] and 48 mg/kg under setting [2].

`CN1CCC(c2cccc(Cl)c2)(C(C)(C)O)CC1` [Example 1a, 4-(3'-Chlorophenyl)-α,α,1-trimethyl-4-piperidinemethanol]: the ED50 is, setting by setting: under setting [1], 10 mg/kg; under setting [2], 16.1 mg/kg.

As to `COc1cccc(C2(C3(O)CCCC3)CCN(C)CC2)c1` [FF], the “Mouse PQW ED50 (mg/kg)” value reads like this: (p.o.) 47.0; (s.c.) 16.0.

Turning to `CCC(O)(CC)C1(c2cccc(OC)c2)CCN(C)CC1` [DD], the “Mouse PQW ED50 (mg/kg)” value (p.o.) turned out to be 12.0.

`CC(O)C1(c2cccs2)CCN(C)CC1` (stereo not drawn) [Example 26, 4-(2-Thienyl)-α,1-dimethylpiperidinemethanol]: the ED50 reads like this: under setting [1], 19 mg/kg; under setting [2], 13 mg/kg.

As to `CN1CCC(c2csc3ccccc23)(C(C)(C)O)CC1` [Example 45], the ED50 stood at 54 mg/kg under setting [1] and 4.2 mg/kg under setting [2].

For the compound `CC(OCc1ccccc1)C1(c2cccc(Cl)c2)CCN(C)CC1` (stereo not shown) [Example 69], the ED50 is, setting by setting: under setting [1], more than 81 mg/kg; under setting [2], 62 mg/kg.

Turning to `CC1CCC(O)(C2(c3cccc(C(F)(F)F)c3)CCN(C)CC2)C1` (stereo not shown) [Y], for the setting “p.o.”, the “Mouse PQW ED50 (mg/kg)” value was 25.0.

On to `CC(O)C1(c2ccc(Cl)c(Cl)c2)CCN(C)CC1` (stereo not shown) [Example 9], for which the ED50 runs as follows: under setting [1], 32 mg/kg; under setting [2], more than 81 mg/kg.

As for `CCC(C)(O)C1(c2cccc(C(F)(F)F)c2)CCN(C)CC1` (stereo not shown) [V], the “Mouse PQW ED50 (mg/kg)” value (p.o.) is listed as 23.0.

Take `CN1CCC(c2cccs2)(C(C)(C)O)CC1` [Example 43]: the ED50 runs as follows: under setting [1], 36 mg/kg; under setting [2], 13 mg/kg.

On to `Cc1cc(C)cc(C2(C(C)(C)O)CCN(C)CC2)c1` [U], for which the “Mouse PQW ED50 (mg/kg)” value is, setting by setting: (p.o.) 47.0; (s.c.) 4.5.

As for `CN1CCC(c2ccccn2)(C(C)(C)O)CC1` [Example 46, reference compound], the “Mouse PQW remark” value is on record as “Inactive”. Further, under setting [1], the ED50 is more than 81 mg/kg. Under setting [2], the ED50 was more than 81 mg/kg.

Take `CC(O)C1(c2ccc(Cl)cc2)CCN(C)CC1` (stereo not shown) [Example 8]: the ED50 was more than 81 mg/kg under setting [1] and 30 mg/kg under setting [2].

Take `CN1CCC(c2cccc3ccccc23)(C(C)(C)O)CC1` [Example 50]: the ED50 reads like this: under setting [1], 67 mg/kg; under setting [2], 24 mg/kg.

Regarding `Cc1cccc(C2(C(C)O)CCN(C)CC2)c1` (stereo not shown) [Example 13], the ED50 was determined as 47 mg/kg under setting [1] and 4.7 mg/kg under setting [2].

In the case of `C=CCN1CCC(c2cccc(Cl)c2)(C(C)(C)O)CC1` [Example 42, 1-allyl,4-(3'-chlorophenyl)-α,α dimethyl-4-piperidinemethanol], the ED50 came out at 54 mg/kg under setting [1] and 27 mg/kg under setting [2].

For the compound `CC(O)C1(c2cccc(Br)c2)CCN(C)CC1` (stereo not drawn) [Example 10, 4-(3'-Bromophenyl)-α,1-dimethylpiperidinemethanol], the ED50 runs as follows: under setting [1], 16 mg/kg; under setting [2], 6.5 mg/kg.

In the case of `COc1cccc(C2(C3(O)CCCCC3)CCN(C)CC2)c1` [GG], the “Mouse PQW ED50 (mg/kg)” value (p.o.) is on record as less than 108.0.

For the compound `CC(O)C1(c2ccc(Br)cc2)CCN(C)CC1` (stereo not shown) [Example 11], the “Mouse PQW remark” value is given as “Inactive”. The ED50 under setting [1] was more than 81 mg/kg. Besides, the ED50 under setting [2] is more than 81 mg/kg.

`CN1CCC(c2ccsc2)(C(C)(C)O)CC1` [Example 44]: the ED50 under setting [1] amounted to 24 mg/kg and the ED50 under setting [2] came to 6.5 mg/kg.

In the case of `COc1cccc(C2(C(C)(C)O)CCN(C)CC2)c1` [BB], the “Mouse PQW ED50 (mg/kg)” value was 19.0 (p.o.) and 12.0 (s.c.).

Turning to `CC(=O)OC(C)(C)C1(c2cccc(Cl)c2)CCN(C)CC1` [Example 67, 4-(3'-Chlorophenyl)-α,α,1-trimethyl-4-piperidinemethanol Acetate], the ED50 is 5.2 mg/kg under setting [1] and 1.8 mg/kg under setting [2].

For `CC(O)C1(c2cccc(C(F)(F)F)c2)CCN(C)CC1` (stereo not shown) [Example 15], the ED50 under setting [1] was 30 mg/kg and the ED50 under setting [2] stood at 19 mg/kg.

As to `CN1CCC(c2ccc3ccccc3c2)(C(C)(C)O)CC1` [KK], the “Mouse PQW ED50 (mg/kg)” value (p.o.) is 47.0 and the “Mouse PQW ED50 (mg/kg)” value (s.c.) was 27.0.

With `CN1CCC(c2cccc(Br)c2)(C(C)(C)O)CC1` [Example 41, 4-(3'-Bromophenyl)-α,α,1-trimethyl-4-piperidinemethanol], the ED50 runs as follows: under setting [1], 24 mg/kg; under setting [2], 19 mg/kg.
